Experimental data reported in US9902696B2, “1,4-substituted piperidine derivatives” (Cephalon, Inc., priority 2015, dated 2018).
Structures can show the parent of a compound that is named as a salt.

Target: T1, recombinant human baculovirus-expressed GST-tagged FASN (Homo sapiens, UniProt P49327)
T1 construct: GST
Experiment: FASN enzyme activity assay, fluorescence-based detection of CoA with CPM
Format: biochemical
Details: 5 nM FASN, 150 μM NADPH, 10 μM acetyl-CoA, 25 μM malonyl-CoA, 90 minutes incubation; read-out: IC50 data for Additional Compounds of Formulae I-V(a): Activity
How it was run: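 Human GST-tagged FASN, baculovirus-expressed (5 nM), in 50 mM HEPES pH 7.5 with 150 μM NADPH, 10 μM acetyl-CoA, 25 μM malonyl-CoA, 0.5% DMSO; malonyl-CoA-started, 90 min. Released CoA detected with CPM (50 μM dilution), 30 min, fluorescence ex 390/em 530. IC50 from variable-slope sigmoidal fit of % inhibition versus log concentration.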

T1 sequence (P49327 whole entry): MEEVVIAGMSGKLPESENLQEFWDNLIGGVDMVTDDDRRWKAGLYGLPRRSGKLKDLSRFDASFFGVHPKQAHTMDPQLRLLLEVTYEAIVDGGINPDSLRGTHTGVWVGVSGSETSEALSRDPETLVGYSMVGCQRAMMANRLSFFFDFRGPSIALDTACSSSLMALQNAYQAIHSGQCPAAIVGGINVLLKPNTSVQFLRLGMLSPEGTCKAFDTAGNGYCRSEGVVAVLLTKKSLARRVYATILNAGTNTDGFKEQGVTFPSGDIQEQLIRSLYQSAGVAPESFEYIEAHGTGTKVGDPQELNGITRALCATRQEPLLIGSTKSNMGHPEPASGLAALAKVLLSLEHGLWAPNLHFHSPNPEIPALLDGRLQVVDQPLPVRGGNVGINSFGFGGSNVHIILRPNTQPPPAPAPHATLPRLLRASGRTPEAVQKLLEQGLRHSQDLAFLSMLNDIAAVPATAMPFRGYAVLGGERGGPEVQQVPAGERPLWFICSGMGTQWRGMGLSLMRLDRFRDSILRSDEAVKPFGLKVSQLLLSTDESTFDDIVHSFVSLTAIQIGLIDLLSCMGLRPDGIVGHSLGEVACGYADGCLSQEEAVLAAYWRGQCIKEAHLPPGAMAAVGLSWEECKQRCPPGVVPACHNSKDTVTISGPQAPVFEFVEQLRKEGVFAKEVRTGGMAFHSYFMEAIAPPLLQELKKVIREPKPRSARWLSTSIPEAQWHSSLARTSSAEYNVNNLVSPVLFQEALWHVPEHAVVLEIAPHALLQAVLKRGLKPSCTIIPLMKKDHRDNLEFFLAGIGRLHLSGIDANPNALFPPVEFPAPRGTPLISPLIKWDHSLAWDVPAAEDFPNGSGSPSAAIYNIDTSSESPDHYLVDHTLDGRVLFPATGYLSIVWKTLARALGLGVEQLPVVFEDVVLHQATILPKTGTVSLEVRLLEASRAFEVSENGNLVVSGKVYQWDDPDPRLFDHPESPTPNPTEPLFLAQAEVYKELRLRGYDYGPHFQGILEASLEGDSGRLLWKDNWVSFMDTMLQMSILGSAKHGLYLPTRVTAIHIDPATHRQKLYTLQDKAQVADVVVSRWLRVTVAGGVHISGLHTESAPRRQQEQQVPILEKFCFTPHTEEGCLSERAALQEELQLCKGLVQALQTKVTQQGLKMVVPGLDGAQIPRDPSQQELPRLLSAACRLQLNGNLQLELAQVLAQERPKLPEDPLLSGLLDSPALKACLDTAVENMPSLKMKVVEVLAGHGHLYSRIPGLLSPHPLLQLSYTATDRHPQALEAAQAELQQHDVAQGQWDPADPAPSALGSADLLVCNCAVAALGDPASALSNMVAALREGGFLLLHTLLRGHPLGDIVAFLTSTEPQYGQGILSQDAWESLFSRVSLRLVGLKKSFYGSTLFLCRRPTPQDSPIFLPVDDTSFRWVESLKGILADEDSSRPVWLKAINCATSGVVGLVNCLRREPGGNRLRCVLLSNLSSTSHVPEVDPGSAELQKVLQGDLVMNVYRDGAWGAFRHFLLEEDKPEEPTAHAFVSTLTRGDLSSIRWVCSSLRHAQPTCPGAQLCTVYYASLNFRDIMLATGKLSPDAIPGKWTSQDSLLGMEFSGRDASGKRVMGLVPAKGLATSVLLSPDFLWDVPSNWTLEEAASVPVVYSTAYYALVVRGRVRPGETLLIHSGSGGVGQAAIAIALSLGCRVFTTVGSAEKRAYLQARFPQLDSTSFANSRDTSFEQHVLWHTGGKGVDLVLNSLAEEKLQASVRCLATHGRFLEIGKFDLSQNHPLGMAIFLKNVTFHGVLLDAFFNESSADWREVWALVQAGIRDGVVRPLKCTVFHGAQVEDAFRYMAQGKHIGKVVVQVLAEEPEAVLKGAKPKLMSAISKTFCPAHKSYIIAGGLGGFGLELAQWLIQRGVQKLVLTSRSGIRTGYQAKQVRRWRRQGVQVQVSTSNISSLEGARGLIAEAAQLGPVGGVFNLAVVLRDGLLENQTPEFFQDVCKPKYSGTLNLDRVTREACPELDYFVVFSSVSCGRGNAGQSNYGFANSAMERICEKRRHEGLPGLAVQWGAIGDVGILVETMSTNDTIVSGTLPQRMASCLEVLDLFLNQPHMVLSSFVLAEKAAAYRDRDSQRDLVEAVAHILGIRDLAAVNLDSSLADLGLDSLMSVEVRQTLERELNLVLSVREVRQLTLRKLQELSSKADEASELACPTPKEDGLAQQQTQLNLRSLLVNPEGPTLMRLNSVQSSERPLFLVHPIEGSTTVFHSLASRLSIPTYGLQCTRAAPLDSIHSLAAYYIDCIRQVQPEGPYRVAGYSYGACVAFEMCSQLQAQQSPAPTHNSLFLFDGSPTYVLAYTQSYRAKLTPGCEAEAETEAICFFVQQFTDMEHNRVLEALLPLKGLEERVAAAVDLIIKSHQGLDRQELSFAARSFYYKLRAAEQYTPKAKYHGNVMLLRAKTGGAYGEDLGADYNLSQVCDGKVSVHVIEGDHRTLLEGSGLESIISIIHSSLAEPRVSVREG

First: Cc1c(-c2ccc(OC3CCN(C(=O)NOCC(C)C)CC3)cc2)ccc2nccn12 [Example 601, N-Isobutoxy-4-[4-(5-methylimidazo[1,2-a]pyridin-6-yl)phenoxy]piperidine-1-carboxamide]
Second: Cc1c(-c2ccc(OC3CCN(C(=O)NC(C)C)CC3)cc2)ccc2nccn12 [Example 603, N-Isopropyl-4-[4-(5-methylimidazo[1,2-a]pyridin-6-yl)phenoxy]piperidine-1-carboxamide]
The IC50 of the first is lower: 1 to 99 nM for the first, 1000 to 10000 nM for the second.

First: Cc1c(-c2ccc(OC3CCN(C(=O)NCCc4c[nH]cn4)CC3)cc2)ccc2cccnc12 [Example 548, N-[2-(1H-Imidazol-4-yl)ethyl]-4-[4-(8-methyl-7-quinolyl)phenoxy]piperidine-1-carboxamide, 2HCl]
Second: Cc1c(-c2ccc(OC3CCN(C(=O)NCC4CCC4)CC3)cc2)ccc2cccnc12 [Example 560, N-(Cyclobutylmethyl)-4-[4-(8-methyl-7-quinolyl)phenoxy]piperidine-1-carboxamide]
The IC50 of the first is higher: 1000 to 10000 nM for the first, 100 to 999 nM for the second. The second is the more potent here.

Cc1c(-c2ccc(OC3CCN(C(=O)Nc4cnn(C)c4)CC3)cc2)ccc2nccn12 [Example 604, 4-[4-(5-Methylimidazo[1,2-a]pyridin-6-yl)phenoxy]-N-(1-methylpyrazol-4-yl)piperidine-1-carboxamide] and COCCNC(=O)N1CCC(Oc2ccc(-c3ccc4nccn4c3C)cc2)CC1 [Example 597, N-(2-Methoxyethyl)-4-[4-(5-methylimidazo[1,2-a]pyridin-6-yl)phenoxy]-piperidine-1-carboxamide] fall in the same range of IC50: 1000 to 10000 nM for the first, 1000 to 10000 nM for the second.

Cc1c(-c2ccc(OC3CCN(C(=O)OCCN4CCCC4)CC3)cc2)ccc2cccnc12 [Example 547, 2-Pyrrolidin-1-ylethyl 4-[4-(8-methyl-7-quinolyl)phenoxy]piperidine-1-carboxylate, 2HCl] and Cc1c(-c2ccc(OC3CCN(C(=O)OCC(C)C)CC3)cc2)ccc2cccnc12 [Example 550, Isobutyl 4-[4-(8-methyl-7-quinolyl)phenoxy]piperidine-1-carboxylate, HCl] fall in the same range of IC50: 1000 to 10000 nM for the first, 1000 to 10000 nM for the second.

Molecule Cc1c(-c2ccc(OC3CCN(C(=O)[C@H]4CCCN4C)CC3)cc2)ccc2cccnc12 [Example 616, [(2R)-1-Methylpyrrolidin-2-yl]-[4-[4-(8-methyl-7-quinolyl)phenoxy]-1-piperidyl]methanone] has an IC50 of 1000 to 10000 nM.

Same assay, conditions: 5 nM FASN, 150 μM NADPH, 10 μM acetyl-CoA, 25 μM malonyl-CoA, 90 minutes incubation; read-out: IC50 data for Compounds of Formulae I-V/V(a): Activity

CCC(=O)N1CCC(Oc2ccc(-c3cc(OC)c4ccnn4c3)cc2)CC1 [Example 410, 1-{4-[4-(4-Methoxypyrazolo[1,5-a]pyridin-6-yl)-phenoxy]-piperidin-1-yl}-propan-1-one, HCl] and COc1cc(-c2ccc(OC3CCN(C(=O)C4CC4)CC3)cc2)cn2nccc12 [Example 411, Cyclopropyl-{4-[4-(4-methoxypyrazolo[1,5-a]pyridin-6-yl)-phenoxy]-piperidin-1-yl}-methanone, HCl] fall in the same range of IC50: 100 to 999 nM for the first, 100 to 999 nM for the second.

CNC(=O)N1CCC(Oc2ccc(-c3ccc4cccnc4c3C)cc2)CC1 [Example 95, N-methyl-4-[4-(8-methyl-7-quinolyl)phenoxy]piperidine-1-carboxamide] and CCC(=O)N1CCC(Oc2ccc(-c3ccc4cccnc4c3C)cc2)CC1 [Example 36] fall in the same range of IC50: 1 to 99 nM for the first, 1 to 99 nM for the second.

Cc1nc2ccc(-c3ccc(OC4CCN(C(=O)[C@H]5CCCO5)CC4)cc3)cn2c1C [Example 289, {4-[4-(2,3-Dimethylimidazo[1,2-a]pyridin-6-yl)-phenoxy]-piperidin-1-yl}-(R)-tetrahydrofuran 2-yl-methanone] and Cc1nc2ccc(-c3ccc(OC4CCN(C(=O)C5CC5)CC4)cc3)cn2c1C [Example 291, Cyclopropyl-{4-[4-(2,3-dimethylimidazo[1,2-a]pyridin-6-yl)-phenoxy]-piperidin-1-yl}-methanone] fall in the same range of IC50: 1000 to 10000 nM for the first, 1000 to 10000 nM for the second.

First: CN1CCN(c2c(-c3ccc(OC4CCN(C(=O)[C@H]5CCCO5)CC4)cc3)ccc3cccnc23)CC1 [Example 323, [4-[4-[8-(4-Methylpiperazin-1-yl)-7-quinolyl]phenoxy]-1-piperidyl]-[(2R)-tetrahydrofuran-2-yl]methanone]
Second: O=C([C@H]1CCCO1)N1CCC(Oc2ccc(-c3ccc4cccnc4c3Cl)cc2)CC1 [Example 260, {4-[4-(8-Chloro-quinolin-7-yl)-phenoxy]-piperidin-1-yl}-(R)-tetrahydro-furan-2-yl-methanone, TFA salt]
The IC50 of the first is higher: 1000 to 10000 nM for the first, 1 to 99 nM for the second. The second is the more potent here.

First: CC(C)C(=O)N1CCC(S(=O)(=O)c2ccc(-c3ccc4occc4c3)cc2)CC1 [Example 515, 1-[4-(4-Benzofuran-5-yl-benzenesulfonyl)-piperidin-1-yl]-2-methyl-propan-1-one]
Second: CCC(=O)N1CCC(Oc2ccc(-c3ccc4c(OC)nccc4c3)cc2)CC1 [Example 433]
The IC50 of the first is higher: 1000 to 10000 nM for the first, 100 to 999 nM for the second. The second is the more potent here.

Compared with O=C(C1CCC1)N1CCC(Oc2ccc(-c3cncc(-c4ccccc4)c3)cc2)CC1 [Example 385, Cyclobutyl-{4-[4-(5-phenylpyridin-3-yl)-phenoxy]-piperidin-1-yl}-methanone, TFA salt], O=C(C1CCC1)N1CCC(Oc2ccc(-c3ccc(-c4ccccc4)nc3)cc2)CC1 [Example 381, Cyclobutyl-{4-[4-(6-phenyl-pyridin-3-yl)-phenoxy]-piperidin-1-yl}-methanone] is lower in IC50: 1000 to 10000 nM for the first, 100 to 999 nM for the second. The second is the more potent here.

First: CCC(=O)N1CCC(N(C)c2ccc(-c3cnc4ccccc4c3)cc2)CC1 [Example 524, 1-{4-[Methyl-(4-quinolin-3-yl-phenyl)-amino]-piperidin-1-yl}-propan-1-one, HCl]
Second: O=C(CO)N1CCC(Oc2ccc(-c3cnc4ccccc4c3)cc2)CC1 [Example 110, 2-Hydroxy-1-[4-(4-quinolin-3-yl-phenoxy)-piperidin-1-yl]-ethanone, 2HCl]
The IC50 of the first is lower: 100 to 999 nM for the first, 1000 to 10000 nM for the second.

First: O=C(C1CC1)N1CCC(Oc2ccc(-c3ccc4nnc(C(F)(F)F)n4c3)cc2)CC1 [Example 160, Cyclopropyl-{4-[4-(3-trifluoromethyl-1,2,4-triazolo[4,3-a]pyridin-6-yl)-phenoxy]-piperidin-1-yl}-methanone, HCl]
Second: COc1cc(-c2ccc(OC3CCN(C(=O)C4CCC4)CC3)cc2)cn2nccc12 [Example 412, Cyclobutyl-{4-[4-(4-methoxypyrazolo[1,5-a]pyridin-6-yl)-phenoxy]-piperidin-1-yl}-methanone, HCl]
The IC50 of the first is higher: 1000 to 10000 nM for the first, 1 to 99 nM for the second.

First: CCC(=O)N1CC[C@@H](Oc2ccc(-c3ccc4cccnc4c3)cc2)C1 [Example 344, (R)-1-(3-(4-(Quinolin-7-yl)phenoxy)pyrrolidin-1-yl)propan-1-one, HCl]
Second: CCC(=O)N1CCC(Oc2ccc(-c3cc4ncccc4cc3C)cc2)CC1 [Example 276, 1-{4-[4-(6-Methylquinolin-7-yl)-phenoxy]-piperidin-1-yl}-propan-1-one]
The IC50 of the first is lower: 100 to 999 nM for the first, 1000 to 10000 nM for the second.

First: Cc1c(-c2ccc(O[C@H]3C[C@H]4CC[C@@H](C3)N4C(=O)C3CC3)cc2)ccc2cccnc12 [Example 370, Cyclopropyl-{endo-3-[4-(8-methylquinolin-7-yl)-phenoxy]-8-aza-bicyclo-[3.2.1]oct-8-yl}-methanone, HCl]
Second: Cc1c(-c2ccc(O[C@H]3CCN4C(=O)CC[C@H]4C3)cc2)ccc2cccnc12 (racemic) [Example 355, (±)-(7S,8aS)-7-(4-(8-Methylquinolin-7-yl)phenoxy)hexahydroindolizin-3 (2H)-one]
The IC50 of the first is lower: 100 to 999 nM for the first, 1000 to 10000 nM for the second.

First: CCC(=O)N1CCC(Oc2ccc(-c3ccc4cccnc4c3Cl)cc2)CC1 [Example 261, 1-{4-[4-(8-Chloroquinolin-7-yl)-phenoxy]-piperidin-1-yl}-propan-1-one]
Second: CCC(=O)N1CCC(Oc2ccc(-c3c(C)ccc4ncccc34)cc2)CC1 [Example 350, 1-(4-(4-(6-Methylquinolin-5-yl)phenoxy)piperidin-1-yl)propan-1-one HCl]
The IC50 of the first is lower: 1 to 99 nM for the first, 100 to 999 nM for the second.

O=C([C@H]1CCCO1)N1CCC(Oc2ccc(-c3cnc4ccccc4n3)cc2)CC1 [Example 68, [4-(4-Quinoxalin-2-yl-phenoxy)-piperidin-1-yl]-(R)-tetrahydrofuran-2-yl-methanone] and Cc1c(-c2ccc(OC3CCN(C(=O)[C@H]4CCCO4)CC3)cc2)ccc2nccn12 [Example 285, {4-[4-(5-Methylimidazo[1,2-a]pyridin-6-yl)-phenoxy]-piperidin-1-yl}-(R)-tetrahydrofuran-2-yl-methanone] fall in the same range of IC50: 1 to 99 nM for the first, 1 to 99 nM for the second.

CCC(=O)N1CCC(Oc2ccc(-c3ccc(Oc4ccccc4)cc3)cc2)CC1 [Example 508, 1-[4-(4′-Phenoxybiphenyl-4-yloxy)-piperidin-1-yl]-propan-1-one] and O=C(C1CC1)N1CCC(Oc2ccc(-c3cc4ccccc4nc3Cl)cc2)CC1 [Example 17, {4-[4-(2-Chloroquinolin-3-yl)-phenoxy]-piperidin-1-yl}-cyclopropyl-methanone] fall in the same range of IC50: 1000 to 10000 nM for the first, 1000 to 10000 nM for the second.

Compared with COc1cc2ncc(-c3ccc(OC4CCN(C(=O)[C@H]5CCCO5)CC4)cc3)cc2cc1C [Example 443, {4-[4-(7-Methoxy-6-methylquinolin-3-yl)-phenoxy]-piperidin-1-yl}-(R)-tetrahydrofuran-2-yl-methanone], Cc1c(-c2ccc(OC3CCN(C(=O)[C@H]4CCCO4)CC3)cc2)ccc2ncnn12 [Example 311, {4-[4-(5-Methyl-[1,2,4]triazolo[1,5-a]pyridin-6-yl)-phenoxy]-piperidin-1-yl}-(R)-tetrahydrofuran-2-yl-methanone] is lower in IC50: 1000 to 10000 nM for the first, 1 to 99 nM for the second. The second is the more potent here.

Cc1c(-c2ccc(O[C@@H]3CCN(C(=O)[C@@H]4CCCO4)C[C@H]3F)cc2)ccc2cccnc12 (racemic) [Example 372, {(trans)-3-Fluoro-4-[4-(8-methylquinolin-7-yl)-phenoxy]-piperidin-1-yl}-(R)-tetrahydrofuran-2-yl-methanone, HCl] was tested, and the IC50 was 1 to 99 nM.
